Patent publication US10065965B2, “Imidazo[1,2-B][1,2,4]triazine derivatives as antiparasitic agents” (GlaxoSmithKline Intellectual Property Development Limited, priority 2015, dated 2018)
In brackets after ≈: the same amount, converted by molar mass.

Tests used:
Trypanosoma cruzi = experiment: Assay 6 Trypanosoma cruzi intracellular assay (infected H9C2 cells); assay type: cell-based; conditions: H9c2, in Rattus norvegicus, 72 h, infected H9C2 rat cardiomyocytes, read-out: pEC50 value against Trypanosoma cruzi (converted)
Experimental: Compounds were dispensed into black 384-well assay plates (Greiner) by acoustic dispensing (LabCyte ECHO). For potency determinations, eleven-point, one in three dilution curves were generated, with a top concentration of 50 μM. H9C2 rat cardiomyocytes cells were dispensed in T225 tissue culture flasks and after 4 hours they were infected during 18 hours with T. cruzi trypomastigotes in the same T225 tissue culture flasks at a multiplicity of infection of 1. Next, any remaining free trypomastigotes were washed away with PBS and the infected H9C2 cells were harvested by trypsinisation. The infected H9C2 cells were then plated into 384-well plates containing the compounds to be tested, at 2500 cells per well in DMEM media with 2% FBS, 1% Penicillin/Streptomocin, 2 mM L-Glutamine, 1 mM Na Pyruvate and 25 mM HEPES. After 72 h incubation at 37° C. in presence of 5% CO2, the plates were fixed and stained with 4% formaldehyde and 2 μM Draq5 for 3 hours at room temperature. The plates were imaged on a Perkin Elmer Opera high-content imaging system using a 20× air objective. Images were analysed using the Acapella building blocks system (Perkin Elmer). The image analysis algorithm first identified the H9C2 nuclei followed by demarcation of the cytoplasm and identification of intracellular amastigotes. This algorithm reported mean number of parasites per H9C2 cell, the percentage of infected H9C2 cells and the total number of H9C2 cells.

[1] = Assay 4 solubility assay, ChemiLuminescent Nitrogen Detection (CLND); assay type: physicochemical; conditions: phosphate buffered saline, pH 7.4, aqueous buffer, kinetic from dmso stock, pH 7.4 PBS, from 10 mM DMSO stock, 1 h at room temperature
Experimental: A 10 mM DMSO stock solution of the compound was prepared. Solvents and Buffers Organic solvents of HPLC grade were used. Ultra pure water (Milli-Q grade) was used. Buffers were prepared with ultra pure water and filtered using 0.45μ cameo filters. Aqueous Buffer Solution: Phosphate Buffer Saline (PBS) @ pH 7.4 was prepared from Sigma dry powder packs, P-3813. Each one was diluted to 1 liter with deionised water. The pH was checked before the solution was used II. Procedures. • a) DMSO concentration was measured. DMSO blanks and ondansetron and caffeine standards were added to the plate (column 12, A, B, C, & D for the blanks and E, F, G, & H for the standards). Plates were covered with foil. When the UV and CLND detectors baselines appeared to be stable, the CLND was zeroed. • b) Once DMSO concentration measurements were complete, a filtration plate was prepared from each parent plate by diluting 5 μl of the 10 mM DMSO stock solution to […] with pH7.4 PBS. • c) After the plates were prepared, they were covered with a plate lid and left to incubate for 1 h at room temperature. • d) Sample was filtered using MILLIPORE MultiScreen Solubility (MSSLBPC10) Filtration Plates, to NUNC V well plates. The filter plate was removed and the NUNC plate was sealed with a power seal plate seal. • e) HPLC/CLND instruments were set up and left to equilibrate. Mobile phases (MeOH:H2O 1:1, flow rate: 0.2 ml/min, sensitivity z10, Gain High). The samples were run. • f) The assay curve fit was done by linear regression and solubility values were reported in μM.

SMILES | EC50 (Trypanosoma cruzi) | solubility at 1 h [1]
O=C(Nc1ccc(F)c(-c2cn3nc(C4=CCOCC4)cnc3n2)c1)N1CCCC1 [Example 12, N-(3-(2-(3,6-dihydro-2H-pyran-4-yl)imidazo[1,2-b] [1,2,4]triazin-6-yl)-4-fluorophenyl)pyrrolidine-1-carboxamide] | 5.01 to 631 nM | 10 to 83 µM (≈ 4.08 to 33.9 µg/mL)
COC(=O)Nc1cnc2nc(-c3cc(NC(=O)N4CCCC4)ccc3F)cn2n1 [Example 55, methyl (6-(2-fluoro-5-(pyrrolidine-1-carboxamido)phenyl)imidazo[1,2-b][1,2,4]triazin-2-yl)carbamate] | 5.01 to 631 nM | 10 to 83 µM (≈ 3.99 to 33.1 µg/mL)
O=C(Nc1ccc(F)c(-c2cn3nc(N4CCNCC4)cnc3n2)c1)N1CCCC1 [Example 56, N-(4-fluoro-3-(2-(piperazin-1-yl)imidazo [1,2-b][1,2,4]triazin-6-yl)phenyl)pyrrolidine-1-carboxamide] | 5.01 to 631 nM | 100 to 416 µM (≈ 41 to 171 µg/mL)
CC(=O)c1cnc2nc(-c3cc(NC(=O)N4CCCC4)ccc3F)cn2n1 [Example 46, N-(3-(2-acetylimidazo [1,2-b][1,2,4]triazin-6-yl)-4-fluorophenyl) pyrrolidine-1-carboxamide] | 5.01 to 631 nM | 100 to 416 µM (≈ 36.8 to 153 µg/mL)
O=C(Nc1cnc2nc(-c3cc(NC(=O)N4CCCC4)ccc3F)cn2n1)C1CCCO1 (stereo not drawn) [Example 49, N-(4-fluoro-3-(2-(tetra-hydrofuran-2-carboxamido)imidazo [1,2-b][1,2,4]triazin-6-yl)phenyl)pyrrolidine-1-carboxamide] | 5.01 to 631 nM | 10 to 83 µM (≈ 4.39 to 36.5 µg/mL)
O=C(Nc1ccc(F)c(-c2cn3nc(N4CCCOCC4)cnc3n2)c1)N1CCCC1 [Example 11, N-(3-(2-(1,4-oxazepan-4-yl)imidazo[1,2-b][1,2,4]triazin-6-yl)-4-fluorophenyl)pyrrolidine-1-carboxamide] | 5.01 to 631 nM | –
O=C(Nc1cnc2nc(-c3cc(NC(=O)N4CCCC4)ccc3F)cn2n1)C1CC1 [Example 58, N-(3-(2-(cyclopropane-carboxamido)imidazo [1,2-b][1,2,4]triazin-6-yl)-4-fluorophenyl) pyrrolidine-1-carboxamide] | 5.01 to 631 nM | 10 to 83 µM (≈ 4.09 to 34 µg/mL)
CN1CCN(c2cnc3nc(-c4cc(NC(=O)N5CCCC5)ccc4F)cn3n2)CC1 [Example 57, N-(4-fluoro-3-(2-(4-methylpiperazin-1-yl)imidazo[1,2-b][1,2,4]triazin-6-yl)phenyl) pyrrolidine-1-carboxamide] | 5.01 to 631 nM | 100 to 416 µM (≈ 42.4 to 177 µg/mL)
CC(C)=Cc1cnc2nc(-c3cc(NC(=O)N4CCCC4)ccc3F)cn2n1 [Example 47, N-(4-fluoro-3-(2-(2-methylprop-1-en-1-yl)imidazo[1,2-b][1,2,4]triazin-6-yl)phenyl) pyrrolidine-1-carboxamide] | 5.01 to 631 nM | 10 to 83 µM (≈ 3.8 to 31.6 µg/mL)
CC(C)Cc1cnc2nc(-c3cc(NC(=O)N4CCCC4)ccc3F)cn2n1 [Example 36, N-(4-fluoro-3-(2-isobutyl-imidazo[1,2-b][1,2,4]triazin-6-yl)phenyl) pyrrolidine-1-carboxamide] | 5.01 to 631 nM | 10 to 83 µM (≈ 3.82 to 31.7 µg/mL)
CC(C)c1cnc2nc(-c3cc(NC(=O)N4CCCC4)ccc3F)cn2n1 [Example 13, N-(4-fluoro-3-(2-isopropylimidazo [1,2-b][1,2,4]triazin-6-yl)phenyl)pyrrolidine-1-carboxamide] | 5.01 to 631 nM | 100 to 416 µM (≈ 36.8 to 153 µg/mL)
O=C(Nc1ccc(F)c(-c2cn3nc(-c4ccccc4CN4CCOCC4)cnc3n2)c1)N1CCCC1 [Example 20, N-(4-fluoro-3-(2-(2-(morpholinomethyl)phenyl)imidazo[1,2-b] [1,2,4]triazin-6-yl)phenyl)pyrrolidine-1-carboxamide] | 5.01 to 631 nM | 10 to 83 µM (≈ 5.02 to 41.6 µg/mL)
Cc1c(-c2cccc(NC(=O)N3CCCC3)c2)nc2ncc(N3CCOCC3)nn12 [Example 28, N-(3-(7-methyl-2-morpholinoimidazo [1,2-b][1,2,4]triazin-6-yl)phenyl)pyrrolidine-1-carboxamide] | 5.01 to 631 nM | 100 to 416 µM (≈ 40.7 to 170 µg/mL)
C=C(C)c1cnc2nc(-c3cc(NC(=O)N4CCCC4)ccc3F)cn2n1 [Example 14, N-(4-fluoro-3-(2-(prop-1-en-2-yl)imidazo [1,2-b][1,2,4]triazin-6-yl)phenyl)pyrrolidine-1-carboxamide] | 5.01 to 631 nM | 10 to 83 µM (≈ 3.66 to 30.4 µg/mL)
O=C(Nc1ccc(F)c(-c2cn3nc(N4CCOCC4)cnc3n2)c1)N1CCC1 [Example 42, N-(4-fluoro-3-(2-morpholinoimidazo [1,2-b][1,2,4]triazin-6-yl)phenyl)azetidine-1-carboxamide] | 5.01 to 631 nM | 100 to 416 µM (≈ 39.7 to 165 µg/mL)
CC(C)OC(=O)Nc1cnc2nc(-c3cc(NC(=O)N4CCCC4)ccc3F)cn2n1 [Example 54, isopropyl (6-(2-fluoro-5-(pyrrolidine-1-carboxamido)phenyl)imidazo[1,2-b][1,2,4]triazin-2-yl)carbamate] | 5.01 to 631 nM | 10 to 83 µM (≈ 4.27 to 35.5 µg/mL)
O=C(Nc1ccc(F)c(-c2nc3ncc(N4CCOCC4)nn3c2F)c1)N1CCCC1 [Example 40, N-(4-fluoro-3-(7-fluoro-2-morpholinoimidazo [1,2-b][1,2,4]triazin-6-yl)phenyl)pyrrolidine-1-carboxamide] | 5.01 to 631 nM | 100 to 416 µM (≈ 42.9 to 179 µg/mL)
Cc1c(-c2cc(NC(=O)N3CCCC3)ccc2F)nc2ncc(N3CCOCC3)nn12 [Example 27, N-(4-fluoro-3-(7-methyl-2-morpholinoimidazo [1,2-b][1,2,4]triazin-6-yl)phenyl)pyrrolidine-1-carboxamide] | 5.01 to 631 nM | 100 to 416 µM (≈ 42.5 to 177 µg/mL)
COCCOc1ccc(-c2cnc3nc(-c4cc(NC(=O)N5CCCC5)ccc4F)cn3n2)cc1 [Example 21, N-(4-fluoro-3-(2-(4-(2-methoxyethoxy)phenyl)imidazo[1,2-b][1,2,4]triazin-6-yl)phenyl) pyrrolidine-1-carboxamide] | 5.01 to 631 nM | –
COCCOc1ccccc1-c1cnc2nc(-c3cc(NC(=O)N4CCCC4)ccc3F)cn2n1 [Example 29, N-(4-fluoro-3-(2-(2-(2-methoxyethoxy)phenyl)imidazo[1,2-b][1,2,4]triazin-6-yl)phenyl) pyrrolidine-1-carboxamide] | 5.01 to 631 nM | 10 to 83 µM (≈ 4.77 to 39.6 µg/mL)
COc1ccccc1-c1cnc2nc(-c3cc(NC(=O)N4CCCC4)ccc3F)cn2n1 [Example 30, N-(4-fluoro-3-(2-(2-methoxyphenyl)imidazo [1,2-b][1,2,4]triazin-6-yl)phenyl)pyrrolidine-1-carboxamide] | 5.01 to 631 nM | 10 to 83 µM (≈ 4.32 to 35.9 µg/mL)
CC(O)c1cnc2nc(-c3cc(NC(=O)N4CCCC4)ccc3F)cn2n1 (racemic) [Example 24, (+,−)-N-(4-fluoro-3-(2-(1-hydroxyethyl)imidazo [1,2-b][1,2,4]triazin-6-yl)phenyl)pyrrolidine-1-carboxamide] | 5.01 to 631 nM | 100 to 416 µM (≈ 37 to 154 µg/mL)
O=C(Nc1ccc(Cl)c(-c2cn3nc(N4CCOCC4)cnc3n2)c1)N1CCCC1 [Example 43, N-(4-chloro-3-(2-morpholinoimidazo[1,2-b][1,2,4]triazin-6-yl)phenyl)pyrrolidine-1-carboxamide] | 5.01 to 631 nM | 10 to 83 µM (≈ 4.28 to 35.5 µg/mL)
O=C(Nc1ccc(F)c(-c2cn3nc(C4CCOC4)cnc3n2)c1)N1CCCC1 (racemic) [Example 23, (+,−)-N-(4-fluoro-3-(2-(tetrahydrofuran-3-yl)imidazo[1,2-b] [1,2,4]triazin-6-yl)phenyl)pyrrolidine-1-carboxamide] | 5.01 to 631 nM | –
